{"source": "patent US11033599B2", "about": "“Pennisetum extract, process for manufacturing the same and uses thereof” (METAL INDUSTRIES RESEARCH & DEVELOPMENT CENTRE, priority 2017, dated 2021)", "tested_on": "ovariectomized SD female rats", "experiment": "In vivo anti-osteoporosis assay, digital medical image analysis of femurs (DXA / Micro-CT)", "design": "species or system rat", "details": "femur, OVX SD female rats, oral, 3 months, L 50 mg/kg, E2 estrogen 50 μg/kg, mean ± S.E.M., n=6", "method": "In this example, an in vivo assay for anti-osteoporosis activity of the Pennisetum extract was carried out on ovariectomized SD female rats in an animal feeding experiment mode, and the analysis of the femur bone mineral density and trabecular bone measurement was performed to confirm the pharmacological activity. The experimental method is as follows: (1) Test substance and control substances: The test group (L) uses the Pennisetum alcohol extract prepared in the foregoing Example 1 as the test substance. The blank control group (Control) and the ovariectomized group (OVX) were administered with ethanol as the control substance. The positive control group (E2) was administered with estrogen as the control substance. (2) Test animals: Test animals (including the test group, ovariectomized group and positive control group) were ovariectomized SD female rats, and the test on animals simulating the menopausal mode was started 2 weeks after oophorectomy. The blank control group was SD female rats without oophorectomy (only subjected to sham surgery). (3) Animal feeding management: The feeding environment was temperature 20° C. to 25° C.; humidity 65% to 80%; and lighting time 12 hours (monitoring environment every day). During the acclimation and test period, every 4 female rats were housed in an autoclaved plastic rearing cage (46 cm×25 cm×20 cm). Drinking water was treated with a reverse osmosis pure water machine, and then charged in a high temperature autoclaved plastic bottle to give the test animals for free drinking. (4) Acclimation: Ovariectomized SD female rats delivered by BioLASCO Co., Ltd. were acclimated for one week after entering the laboratory. During this period, clinical symptoms were observed every day, and healthy rats with normal weight gain were confirmed for the test. (5) Administration of test substance and control substances: After one week of acclimation, the experimental rats were orally administered with different doses of Pennisetum alcohol extract, ethanol or estrogen for 3 consecutive months, and then all the experimental rats were fasted one night before sacrifice to simulate the clinically applicable route of administration for the human body. During the 3 consecutive months of testing, according to the weight of the day before the administration, the test group was administered with a solution of the Pennisetum alcohol extract (10 mL/kg), which was prepared by dissolving 50 mg of Pennisetum alcohol extract in 10.0 mL of 10% ethanol; the blank control group and the ovariectomized group were administered with 10% ethanol (10.0 mL/kg); and the positive control group was administered with estrogen, which was dissolved in 10% ethanol (10.0 mL/kg). (6) The animal grouping was performed according to the body weight in an S-type order after the animals gained weight. The bone density (mass/volume) of the appropriate bone was measured by a dual energy X-ray absorptiometer (DXA) or micro-computerized tomography (Micro-CT, μ-CT; also used to measure the trabecular number). During the measurement, the DXA with two different energies was used to scan the inspection site, then the X-rays passing through the tested site was received by a scintillation detector, and then a computer analyzed the data to calculate the bone quality of the tested site. The records of the percentage of bone mass (bone volume/tissue volume), trabecular separation/spacing (Tb.Sp), trabecular number (Tb.N) and bone mineral density (BMD) in each group are shown in Table 5. It is represented by mean±standard error (S.E.M.) (n=6), and a, b, c, and d in the table represent statistical differences between the groups. The experimental data were statistically analyzed by one-way ANOVA. The statistical method of correlation index changes between the groups was statistically analyzed by Duncan test. […]", "key": {"[1]": {"details": "listed as positive control group"}}}
{"substance": "estrogen [E2]", "values": [{"measurement": "Bone Mineral Density", "value": 0.619, "unit": "mg/cm^2"}, {"measurement": "Percentage of Bone Mass (bone volume/tissue volume)", "value": 10.512, "unit": "%"}, {"measurement": "Trabecular Number (Tb.N)", "value": "0.908 ± 1/mm"}, {"measurement": "Trabecular Separation/Spacing (Tb.Sp)", "value": 1.103, "unit": "mm"}, {"measurement": "Percentage of Bone Mass (bone volume/tissue volume)", "setting": "[1]", "value": "10.512±1.071", "unit": "%"}, {"measurement": "Trabecular Number (Tb.N)", "setting": "[1]", "value": "0.908±0.085 1/mm"}]}
